Earlier results on 19 compounds are cited in US5786344A, “Camptothecin drug combinations and methods with reduced side effects” (priority 1995, dated 1998).

Entries after “also recorded” stand apart in the source; their conditions may differ. Structures can show the parent of a compound that is named as a salt. Where two headings read alike, the source gives them in different places. *1 amine or outer side, *2 acyl side, *3 side chain or, on linkers, in order; H or OH if unused. Where a SMILES comes first, the peptide text is derived from it. Bridges are numbered along the chain shown (N, C = ends). Roman numbers before positions name the chains, in order. [ ]: non-standard residue; d: D form. Actinocin(9to1) = Cc1c2oc3c(C)ccc(C(=O)[*:1])c3nc-2c(C(=O)[*:2])c(N)c1=O; NMeV = CN[C@H](C(=O)O)C(C)C; Sar = CNCC(=O)O

Data set [1] concerns p-glycoprotein. The conditions noted are these: cited from earlier work; for inhibition of photoaffinity labeling of p-glycoprotein: photolabeling.
For data set [2] the following is noted: cited from earlier work.
The subject of data set [3] is p-glycoprotein. Particulars: renal tubules; cited from earlier work.
Data set [4] deals with outwardly-rectifying chloride channel. The conditions noted are these: 50 μM; cited from earlier work.
The test system of another data set is plasma proteins. Particulars: cited from earlier work.
Another data set deals with tumors. Particulars: preclinical and clinical tumors; cited from earlier work.
Data set [5] concerns multidrug resistant (MDR) cells. Particulars: cited from earlier work.
Data set [6] relates to p-glycoprotein. The conditions noted are these: hydrochloride, cited from earlier work.
For data set [7] the following is noted: cited from earlier work; for clinical toxicity: human, in vivo.
Data set [8] deals with human and murine cell lines. Particulars: 4-6 μM; cited from earlier work.
Where [9] appears, read: plasma/serum/terminal or elimination half-life.

For orientation: half-life means how long it takes for the measured level to halve. For the compound `Cc1c2oc3c(C)ccc(C(=O)N[C@@H]4C(=O)N[C@H](C(C)C)C(=O)N5CCC[C@H]5C(=O)N(C)CC(=O)N(C)[C@@H](C(C)C)C(=O)O[C@@H]4C)c3nc-2c(C(=O)N[C@@H]2C(=O)N[C@H](C(C)C)C(=O)N3CCC[C@H]3C(=O)N(C)CC(=O)N(C)[C@@H](C(C)C)C(=O)O[C@@H]2C)c(N)c1=O` [actinomycin D] (I: T[dV]P[Sar][NMeV] / II: T[dV]P[Sar][NMeV]; ester I:1-I:C, II:1-II:C; linker I:N-II:N via Actinocin(9to1)), the “inhibition of / interaction with p-glycoprotein” value in the data set with p-glycoprotein [1] was “inhibitor of p-glycoprotein”. Besides, in [2] (human, in vivo), the “CNS / blood-brain barrier penetration” value is recorded as “does not pass the blood-brain barrier”, the “excreted intact into the bile” value is given as “Half of the dose” and the urinary excretion is 10%. Besides, the half-life result in [2] (setting [9]) is reported as “about 36 hr”. For the same compound, the “inhibition of p-glycoprotein-mediated transport” value in the data set with p-glycoprotein [3] is given as “inhibitors”.
As to `COc1cccc2c1C(=O)c1c(O)c3c(c(O)c1C2=O)C[C@@](O)(C(C)=O)C[C@@H]3O[C@H]1C[C@H](N)[C@H](O)[C@H](C)O1` [daunomycin], the “inhibition of / interaction with p-glycoprotein” value with p-glycoprotein [1] was “p-glycoprotein inhibitor”. Also, in data set [4], the “block of chloride channel / transport associated with p-glycoprotein” value is reported as “blocked”.
As to `CC(C)(Oc1ccc(Cl)cc1)C(=O)O` [clofibric acid], the “plasma protein binding” value in the data set with plasma proteins is recorded as “bound strongly to plasma proteins”. For the same compound, in [2] (human, in vivo), the fraction metabolized entry is “About 60%”; the half-life is 6 to 25 h; the half-life in anuria entry was “over 100 hr”; the “half-life, average or usual” value was 11 h.
`COc1cc2c(c(OC)c1OC)-c1ccc(OC)c(=O)cc1[C@@H](NC(C)=O)CC2` [colchicine]: the “inhibition of / interaction with p-glycoprotein” value in the data set with p-glycoprotein [1] is “inhibiting p-glycoprotein; also recorded: binding to p-glycoprotein”. Besides, the “block of chloride channel / transport associated with p-glycoprotein” value in [4] is recorded as “blocked”. Moreover, the “oral absorption” value in data set [2] (oral) was “well-absorbed”. Also, the “inhibition of p-glycoprotein-mediated transport” value in the data set on p-glycoprotein [3] is reported as “inhibitors”.
For `CC(=O)O[C@H]1C(=O)[C@@]2(C)[C@H]([C@H](OC(=O)c3ccccc3)[C@]3(O)C[C@H](OC(=O)[C@H](O)[C@@H](NC(=O)c4ccccc4)c4ccccc4)C(C)=C1C3(C)C)[C@]1(OC(C)=O)CO[C@@H]1C[C@@H]2O` [taxol], in the data set with tumors, the “antitumor activity” value was “activity against malignant melanoma and carcinoma of the ovary”. Besides, the “inhibition of / interaction with p-glycoprotein” value in the data set on p-glycoprotein [1] is “interacted with p-glycoprotein”.
Consider `CC(C)NCC(O)COc1cccc2ccccc12` (stereo not shown) [Propranolol], for which, in the data set on plasma proteins (plasma), the plasma protein binding result is given as “Approximately 90%”. Further, the “reversal of drug resistance” value in data set [5] is “partially reverse drug resistance”. In addition, in [2] (human, in vivo, po), the “bioavailability / dose reaching the systemic circulation” value was “about 25%” and the “inter-individual variability in plasma concentrations” value is on record as “approximately 20 fold”. For the same compound, in data set [2] (human, in vivo), the “CNS / blood-brain barrier penetration” value is listed as “readily enters the CNS” and the volume of distribution is 4 L/kg. Moreover, the “oral absorption” value in [2] (oral) is listed as “almost complete absorbed”.
Regarding `COc1cccc2c1C(=O)c1c(O)c3c(c(O)c1C2=O)C[C@@](O)(C(C)=O)C[C@@H]3O[C@H]1C[C@H](N)[C@H](O)[C@H](C)O1` [daunorubicin, hydrochloride], the “inhibition of amphiphilic cation transport” value is “inhibited” in the data set with p-glycoprotein [6] and “inhibit” in the data set on p-glycoprotein [6] (listed as Daunorubicin). In data set [2] (human, in vivo, iv), the distribution half-life is 0.75 h. In addition, in [2] (human, in vivo, po), the “oral absorption” value is given as “Oral absorption is poor”. In addition, in data set [2] (human, in vivo), the biliary secretion is around 40%. Further, in data set [2] (setting [9]), the half-life entry is listed as “about 19 hr”.
Turning to `CC[C@@]1(O)C(=O)OCc2c1cc1n(c2=O)Cc2cc3c(N)cccc3nc2-1` [9-AC, 9-amino-20(s)-camptothecin], the “antitumor activity” value with tumors is listed as “significant activity of 9-AC against colon cancer”.
In the case of `OCCN1CCN(CC/C=C2\c3ccccc3Sc3ccc(C(F)(F)F)cc32)CC1` [trans-flupenthixol], in data set [7], the clinical toxicity entry was “apparent lack of clinical toxicity”. The “reversal of drug resistance” value in data set [5] is “reversed cellular resistance to various drugs only in p-glycoprotein expressing cell lines; also recorded: fully reversed resistance to doxorubicin, vincristine, and colchicine”. The “potency for reversing MDR relative to verapamil” value in data set [5] (equimolar concentrations) is given as “two- to three-fold more potent”.
`CC[C@]1(O)C[C@H]2CN(CCc3c([nH]c4ccccc34)[C@@](C(=O)OC)(c3cc4c(cc3OC)N(C=O)[C@H]3[C@@](O)(C(=O)OC)[C@H](OC(C)=O)[C@]5(CC)C=CCN6CC[C@]43[C@@H]65)C2)C1` [vincristine]: in the data set with plasma proteins, the “plasma protein binding” value is listed as “bind to plasma proteins”. The inhibition of p-glycoprotein with p-glycoprotein [1] (10 μM) is listed as 95%. For the same compound, the “inhibition of / interaction with p-glycoprotein” value in the data set on p-glycoprotein [1] is given as “p-glycoprotein inhibitor”. For the same compound, the “p-glycoprotein inhibition relative to comparator” value with p-glycoprotein [1] (vs verapamil, cyclosporine A, progesterone or anthracycline analogues) is recorded as “more potent than anthracycline analogues”. Further, in data set [2] (oral), the “oral absorption” value is “Unpredictable absorption”. Moreover, the half-life result in data set [2] (plasma or terminal half-life) is listed as “about 24 hours”. In addition, in [2] (read-out: peak concentration in plasma, usual clinical doses), the Cmax is around 400 nM.
`CC/C(=C(\c1ccccc1)c1ccc(OCCN(C)C)cc1)c1ccccc1` [tamoxifen]: in data set [8], the “enhancement of intracellular concentration of cytotoxic drugs” value is given as “three-fold to ten-fold”. Moreover, the dose-limiting toxicity entry in [7] (oral 150 mg/m2 twice a day) was “without dose-limiting toxicity”. Besides, in data set [2] (human, in vivo, po), the “bioavailability / dose reaching the systemic circulation” value was 25-100%. In data set [2] (human, in vivo), the “half-life, single dose” value was 18 h and the “half-life, steady state” value is 7 h.
Consider `CCOC(=O)C1=C(C)NC(C)=C(C(=O)OC)C1c1cccc([N+](=O)[O-])c1` (stereo not shown) [Nitrendipine, 3,5-Pyridinedicarboxylic acid, 1,4-dihydro-2,6-dimethyl-4-(3-nitrophenyl)-, ethyl methyl ester], for which the plasma protein binding entry with plasma proteins (plasma) is recorded as “About 98%”. The “bioavailability / dose reaching the systemic circulation” value in data set [2] (human, in vivo, po) is on record as 10-22%. Also, the “half-life, average or usual” value in data set [2] (human, in vivo) is around 12 h.
On to `COc1ccc([C@@H]2Sc3ccccc3N(CCN(C)C)C(=O)[C@@H]2OC(C)=O)cc1` [Diltiazem, benzothiazepin-4(5H)-one, 3-(acetyloxy)-5-[2-(dimethylamino)ethyl]-2,3-dihydro-2-(4-methoxyphenyl)-,(+) -cis-, monohydrochloride], for which the plasma protein binding with plasma proteins (plasma) is recorded as 70-80%. Besides, the “inhibition of / interaction with p-glycoprotein” value in the data set on p-glycoprotein [1] is recorded as “p-glycoprotein inhibitor”. Also, in data set [2] (human, in vivo, po), the “bioavailability / dose reaching the systemic circulation” value is on record as 40-60% and the oral absorption is recorded as 80%. In [2] (human, in vivo), the “excreted unchanged (urine)” value is reported as “Less than 4%” and the half-life result was “about 4 hr”.
For the compound `CC/C(=C(\c1ccccc1)c1ccc(OCCNC)cc1)c1ccccc1` [N-desmethyltamoxifen], the “enhancement of intracellular concentration of cytotoxic drugs” value in data set [8] is given as “three-fold to ten-fold”. Also, the concentration in data set [2] (read-out: plasma level, oral tamoxifen 150 mg/m2 twice a day after 400 mg/m2 loading dose) was 6000 nM.
As to `CN(C)CCCN1c2ccccc2Sc2ccc(Cl)cc21` [chlorpromazine], the “reversal of drug resistance” value in data set [5] is “effectively reverse multidrug resistance”. Further, in the data set with p-glycoprotein [1], the “inhibition of photoaffinity labeling of p-glycoprotein” value was “poor inhibitors”.
For `C[C@@H]1C[C@H]2[C@@H]3CCC4=CC(=O)C=C[C@]4(C)C3=CC[C@]2(C)[C@H]1C(=O)CN1CCN(c2cc(N3CCCC3)nc(N3CCCC3)n2)CC1` [Tirilazad], the “sensitivity of nonresistant parental cells” value in data set [5] (nonresistant parental cells) is recorded as “does not change the sensitivity of nonresistant parental cells”. In addition, the “sensitization of resistant cells to killing by vinblastine” value in data set [5] (resistant cells) was 66 fold. Further, in the data set with p-glycoprotein [1], the “inhibition of / interaction with p-glycoprotein” value is recorded as “potent inhibitors” and the “inhibition of photoaffinity labeling of p-glycoprotein” value is “more effectively than does verapamil”.
Turning to `CSc1ccc2c(c1)N(CCC1CCCCN1C)c1ccccc1S2` (stereo not shown) [Thioridazine, 10H-Phenothiazine, 10-[2-(1-methyl-2-piperidinyl)ethyl]-2-(methylthio)-], the plasma protein binding in the data set on plasma proteins (plasma) is 96-99%. Also, in data set [2] (human, in vivo), the “half-life, early phase” value is 4 to 10 h and the “half-life, late phase” value was 26 to 36 h.
Consider `CC(C)(C)c1ccc(C(O)CCCN2CCC(C(O)(c3ccccc3)c3ccccc3)CC2)cc1` (stereo not drawn) [Terfenadine, 1-Piperidinebutanol, α-[4-(1,1-dimethylethyl)phenyl]-4-(hydroxydiphenylmethyl)-], for which, in the data set on plasma proteins (plasma), the plasma protein binding is listed as 97%. The clinical toxicity entry in data set [7] is “relatively low toxicity profile”. Moreover, in data set [5] (MDR lines), the “drug accumulation and efflux in MDR lines” value is “augments the accumulation of doxorubicin and inhibits the effluxof rhodamine 123”. For the same compound, in [5] (sensitive cells), the “drug accumulation or efflux in sensitive cells” value is reported as “no effect”. Also, in [2] (human, in vivo, po), the peak plasma levels was 1.5 to 4.5 ng/mL. In data set [2] (human, in vivo), the distribution half-life was 3.5 h and the half-life is 16 to 23 h. The “oral absorption” value in data set [2] (oral) is “absorbed rapidly and almost completely”.
In the case of `CC[C@]1(O)C[C@@H]2CN(CCc3c([nH]c4ccccc34)[C@@](C(=O)OC)(c3cc4c(cc3OC)N(C)[C@H]3[C@@](O)(C(=O)OC)[C@H](OC(C)=O)[C@]5(CC)C=CCN6CC[C@]43[C@@H]65)C2)C1` [vinblastine], in the data set with plasma proteins, the “plasma protein binding” value is reported as “bind to plasma proteins”. For the same compound, the “inhibition of / interaction with p-glycoprotein” value in the data set on p-glycoprotein [1] was “p-glycoprotein inhibitor; also recorded: interacted with p-glycoprotein”. Moreover, the “block of chloride channel / transport associated with p-glycoprotein” value in [4] was “blocked”. Also, in data set [2] (human, in vivo, iv), the “plasma half-life, first phase” value is “approximately 1 hours” and the “plasma half-life, second phase” value was around 20 h. Further, in data set [2] (human, in vivo), the Cmax was around 400 nM, the “excreted unchanged (urine)” value is on record as “Approximately 15%” and the fecal excretion result is “about 10%”. Moreover, the “inhibition of p-glycoprotein-mediated transport” value with p-glycoprotein [3] is given as “inhibitors”.
